Assay results as given in patent US10544103B2, “5-HT2 antagonists” (ANAMAR AB, priority 2015, dated 2020).

Assays:
[1] = tested on: bleomycin-induced pulmonary fibrosis; test: Bleomycin-induced pulmonary fibrosis model in mice; assay type: in vivo, mice (C57BL/6); settings: 28 days
Description: Pulmonary fibrosis was induced in female C57BL/6 mice by intratracheal instillation of bleomycin in saline (50 uL, 0.5 mg/mL). Treatment was initiated at the day of intratracheal instillation and continued to day 28. The mice (8 animals/group) were orally treated twice daily with 25 or 75 mg/kg (R)-3-(2-Hydroxyphenyl)-4-methyl-4,5-dihydro-1H-pyrazole-1-carboximidamide (Example 36, Compound 3) dissolved in ddH2O. Nintedanib at 30 mg/kg in ddH2O, p.o., twice daily, was used as a positive control. Vehicle-treated bleomycin-challenged mice and vehicle-treated non-fibrotic mice served as controls. The animals were sacrificed after 28 days and the fibrotic area of the lung was determined by histological evaluation of Sirius Red-stained sections according to standard protocol. The collagen content of lung tissue was measured using the hydroxyproline collagen assay and the number of myofibroblasts was quantified by staining for α-smooth muscle actin (α-SMA) in paraffin embedded sections.

[2] = tested on: Normal human lung fibroblasts (NHLF); test: Collagen production in normal human lung fibroblasts (PIP ELISA); assay type: cell-based; settings: 1 and 10 μM; stimulation with 5 ng/mL TGF-β1 and 5-HT; 48 hours
Description: Normal human lung fibroblasts (NHLF, Lonza) were cultured in FGM-2 full medium (+FBS) according to manufacturer's instructions. When confluent, cells were seeded onto 24-well tissue culture plates at 100.000 cells/well (4 wells per condition), until reaching confluence. Once cells were confluent they were serum starved overnight in serum free FGM-2 medium. After 16 hours the serum free medium was removed and cells were treated with (R)-3-(2-hydroxyphenyl)-4-methyl-4,5-dihydro-1H-pyrazole-1-carboximidamide (Example 36, Compound 3) at 1 and 10 μM (vehicle ddH2O). The cells were then stimulated with 5 ng/mL human recombinant TGF-β1 alone or in combination with 1 μM or 10 μM 5-HT. All stimuli were prepared in serum free FGM-2 media (1 mL volume/well). Unstimulated cells received serum free FGM-2 medium alone. After 48 hours the supernatants were collected and stored at −80° C. Collagen production was analyzed in supernatants using procollagen type I C-peptide (PIP) ELISA (Takara Bio # MK1010). Cell viability was tested using a LDH assay (Abcam # Ab102526).

TNF-α plasma levels = test: Reduction of TNF-α plasma levels in LPS-induced acute inflammation in mice; assay type: in vivo, mice (BALB/c); settings: for TNF-α: plasma 90 min after LPS
Description: Reduction of TNF-α plasma levels in the LPS-induced acute inflammation in mice was used to determine the in vivo anti-inflammatory properties of the compounds.
Mice (BALB/c, female, approx. 20 g, 8 mice/group) were treated with the test compound perorally (10 or 30 mg/kg in water) 30 min prior to LPS treatment (10 ug in saline, intraperitoneally, serotype 055:B5). Alternatively, the test compound was administered subcutaneously in the neck (10 or 30 mg/kg in 10% PEG400 in saline) 15 min prior to LPS treatment. Blood samples were collected 90 min after LPS treatment and plasma TNF-α concentrations were determined in duplicates by ELISA.

5-HT2B receptor [3] = target: T1, 5-HT2B receptor (Homo sapiens, UniProt P41595); test: 5-HT2B receptor antagonism, inhibition of 5-HT stimulated IP-1 accumulation (HTRF) in CHO-K1 cells; assay type: cell-based; settings: % inhibition of 5-HT (5 nM) induced effect
T1 construct: host or cells: CHO-K1
Description: (§1) 5-HT2B receptor antagonism (performed at Eurofins Panlabs Taiwan, Ltd.) was determined in CHO-K1 cells expressing human receptor protein as inhibition of 5-HT (5 nM) stimulated IP-1 accumulation measured by HTRF quantitation. SB 206553 was used as a standard reference compound. The antagonistic response is expressed as % inhibition of the 5-HT induced effect.

5-HT2B receptor [4] = target: T1, 5-HT2B receptor; test: 5-HT2B receptor agonism, IP-1 accumulation in CHO-K1 cells without prior 5-HT stimulation; assay type: cell-based; settings: % of IP-1 accumulation induced by 5-HT (1 uM)
Description: as §1
5-HT2B receptor agonism (performed at Eurofins Panlabs Taiwan, Ltd.) was determined in the same model as described above in Ex. 117. without prior stimulation with 5-HT. The agonistic response is expressed as % of the IP-1 accumulation induced by 5-HT (1 uM) stimulation.

5-HT2B receptor [5] = target: T1, 5-HT2B receptor; test: 5-HT2B receptor binding, 3H-LSD ligand displacement assay
Description: 5-HT2B receptor binding (performed at Eurofins Panlabs Taiwan, Ltd.) to human receptor protein expressed in CHO-K1 cells was determined in a ligand displacement assay using ^3H-lysergic acid diethylamide (LSD) as radioligand and ketanserine as a standard reference compound. Data is presented as % displacement of radioligand at indicated compound concentrations, see Table 1 and Table 2.

T1 sequence (P41595 whole entry): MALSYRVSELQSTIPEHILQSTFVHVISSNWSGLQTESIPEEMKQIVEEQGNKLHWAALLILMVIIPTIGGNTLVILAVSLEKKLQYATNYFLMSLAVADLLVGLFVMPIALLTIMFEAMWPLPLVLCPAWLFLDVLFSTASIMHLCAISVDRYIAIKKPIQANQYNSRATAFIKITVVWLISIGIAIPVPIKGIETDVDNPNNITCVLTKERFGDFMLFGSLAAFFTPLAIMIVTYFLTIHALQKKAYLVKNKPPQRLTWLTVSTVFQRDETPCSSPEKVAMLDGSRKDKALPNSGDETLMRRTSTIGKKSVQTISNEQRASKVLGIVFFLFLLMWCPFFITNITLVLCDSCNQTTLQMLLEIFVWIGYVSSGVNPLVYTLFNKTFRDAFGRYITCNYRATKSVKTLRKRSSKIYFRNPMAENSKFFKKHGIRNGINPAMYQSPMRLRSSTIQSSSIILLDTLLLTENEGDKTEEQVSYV

SMILES | TNF-α (TNF-α plasma levels; 10 mg/kg p.o. (water)) | TNF-α (TNF-α plasma levels; 30 mg/kg p.o. (water)) | Effect on TNF-α plasma levels (in words) (TNF-α plasma levels; p.o. administration) | inhibition at 0.01 µM (5-HT2B receptor [3]) | inhibition at 0.1 µM (5-HT2B receptor [3]) | inhibition at 1 µM (5-HT2B receptor [3]) | inhibition at 10 µM (5-HT2B receptor [3]) | activation at 0.01 µM (5-HT2B receptor [4]) | activation at 0.1 µM (5-HT2B receptor [4]) | activation at 1 µM (5-HT2B receptor [4]) | activation at 10 µM (5-HT2B receptor [4]) | TNF-α (TNF-α plasma levels; 10 mg/kg s.c. (PEG400/saline)) | also measured
C[C@@H]1CN(C(=N)N)N=C1c1ccccc1O (single isomer, unassigned) [Example 36] |  |  |  |  |  |  |  |  |  |  |  |  | Changes in any of the outcomes (fibrotic area, myofibroblasts, hydroxyproline) ([1]; 25 mg/kg bid oral): No statistically significant changes; Fibrotic area (A) ([1]; 75 mg/kg bid oral): reduced the fibrotic area; Hydroxyproline content (C) ([1]; 75 mg/kg bid oral): reduced the hydroxyproline content; Myofibroblast differentiation (B) ([1]; 75 mg/kg bid oral): inhibited myofibroblast differentiation; Production of collagens (in words) [2]: significantly reduced the production of collagens
Cl.N=C(N)N1CCC(c2ccccc2O)=N1 [Example 3, 3-(2-Hydroxyphenyl)-4,5-dihydro-1H-pyrazole-1-carboximidamide] | 5767 pg/mL | 3992 pg/mL | dose-dependently reduced TNF-α plasma levels | 14% | 38% | 96% | 103% | 1% | -2% | -2% | -7% |  | 
CC1CN(C(=N)N)N=C1c1ccccc1O.Cl (centres unmarked) [Example 17, 3-(2-Hydroxyphenyl)-4-methyl-4,5-dihydro-1H-pyrazole-1-carboximidamide] | 4139 pg/mL | 4062 pg/mL | reduced TNF-α levels | 70% | 96% | 100% | 103% | 3% | 7% | 2% | -2% | 2708 pg/mL | TNF-α (TNF-α plasma levels; 30 mg/kg s.c. (PEG400/saline)): 1397 pg/mL; Effect on TNF-α plasma levels (in words) (TNF-α plasma levels; subcutaneous (s.c.) administration): dose-dependent effects; Anti-inflammatory effect compared with the reference compound (TNF-α plasma levels; versus RS127545 (so in the source)): equal or higher anti-inflammatory effects; inhibition at 0.001 µM (5-HT2B receptor [3]; 0.001 uM): 31%; activation at 0.001 µM (5-HT2B receptor [4]; 0.001 uM): 1%; inhibition at 0.01 µM (5-HT2B receptor [5]; 0.01 uM compound): 54%; inhibition at 0.1 µM (5-HT2B receptor [5]; 0.1 uM compound): 91%; inhibition at 1 µM (5-HT2B receptor [5]; 1 uM compound): 100%; inhibition at 10 µM (5-HT2B receptor [5]; 10 uM compound): 100%
COC(=O)c1ccc2c(c1)NC(=O)/C2=C(\Nc1ccc(N(C)C(=O)CN2CCN(C)CC2)cc1)c1ccccc1 [Nintedanib, reference compound] |  |  |  |  |  |  |  |  |  |  |  |  | Fibrotic area (A) ([1]; 30 mg/kg bid p.o.): reduced the fibrotic area; Hydroxyproline content (C) ([1]; 30 mg/kg bid p.o.): reduced the hydroxyproline content; Myofibroblast differentiation (B) ([1]; 30 mg/kg bid p.o.): inhibited myofibroblast differentiation
CC(C)c1cc(-c2ccc(F)c3ccccc23)nc(N)n1 [RS127445, reference compound] |  |  |  |  |  |  |  |  |  |  |  | 3215 pg/mL | 
